# According to patent US9427482B2, “Agents for clearing biomolecules from circulation” (KONINKLIJKE PHILIPS N.V., priority 2010, dated 2016):
# System: LS174T xenografts
# Experiment: Biodistribution, blood kinetics and excretion of CC49-TCO-18 pretargeted ^177Lu-tetrazine 15 (Example 12)
# Format: in vivo, mice
# Description: Groups of 4 mice bearing LS174T xenografts (70-100 mm^3) were injected either with directly labeled ^177Lu-DOTA-CC49 (100 μg/100 μl, ca. 0.5 MBq per mouse) or with CC49-TCO-18 pretargeted ^177Lu-tetrazine 15 (100 μg/100 μl CC49-TCO-18 followed by two 160 μg/100 μl doses of galactose-MSA-tetrazine 12 at 30 and 48 hours and by 8.52 μg/80 μl ^177Lu-tetrazine 15, 0.8-1.2 MBq per mouse, containing 100 μg gentisic acid). One group of mice injected with ^177Lu-DOTA-CC49 and one injected with pretargeted ^177Lu-tetrazine were used to evaluate the early blood distribution of the two tracers by withdrawing blood samples from the vena saphena at selected time points (2, 30, and 60 min for ^177Lu-DOTA-CC49 and 2, 5, 10, 20, 30, and 45 min for pretargeted ^177Lu-tetrazine) (FIG. 15). These two groups of mice were then sacrificed 3 h and 1 h after the injection of ^177Lu-DOTA-CC49 and ^177Lu-tetrazine, respectively. All other groups of mice were sacrificed at various time points up to 7 days post tracer injection. After sacrifice, blood was withdrawn by heart puncture and selected organs and tissues were harvested and blotted dry. The blood samples and tissues were weighed, added with 1 mL PBS and the radioactivity was counted in a gamma counter along with standards to determine the % ID/g and % ID (Tables 7-8). Two additional groups of tumor bearing mice were used for excretion profiles (FIG. 16). The mice injected with ^177Lu-DOTA-CC49 were housed in filtered caging units and at various time points the bedding was counted in a gamma counter along with standards. The other group of mice was injected with ^177Lu-tetrazine at higher specific activity (ca. 12 MBq/8.52 μg tetrazine per mouse) and whole body clearance was monitored by measuring the animals in a dose calibrator at various time points.
structure (smiles),measurement,setting,value
O=C([O-])CN1CCN(CC(=O)[O-])CCN(CC(=O)NCCOCCOCCOCCOCCOCCOCCOCCOCCOCCOCCOCCNC(=O)CCCC(=O)Nc2ccc(-c3nnc(-c4ccccn4)nn3)nc2)CCN(CC(=O)[O-])CC1.[177Lu+3] [^177Lu-tetrazine],biodistribution bladder,1 hours,2.21 ± 1.15 % ID/g
same,biodistribution blood,1 hours,0.42 ± 0.20 % ID/g
same,biodistribution bone,1 hours,1.08 ± 1.34 % ID/g
same,biodistribution brain,1 hours,0.03 ± 0.03 % ID/g
same,biodistribution heart,1 hours,0.16 ± 0.05 % ID/g
same,biodistribution kidney,1 hours,2.38 ± 0.55 % ID/g
same,biodistribution lg. intestine,1 hours,0.38 ± 0.11 % ID
same,biodistribution liver,1 hours,0.29 ± 0.08 % ID/g
same,biodistribution lung,1 hours,0.54 ± 0.15 % ID/g
same,biodistribution muscle,1 hours,0.23 ± 0.21 % ID/g
same,biodistribution ovaries,1 hours,0.57 ± 0.37 % ID/g
same,biodistribution sm. intestine,1 hours,0.16 ± 0.03 % ID
same,biodistribution spleen,1 hours,0.17 ± 0.04 % ID/g
same,biodistribution stomach,1 hours,0.10 ± 0.10 % ID
same,biodistribution tumor,1 hours,4.71 ± 1.13 % ID/g
same,biodistribution uterus,1 hours,2.80 ± 1.64 % ID/g
same,biodistribution bladder,3 hours,0.85 ± 0.64 % ID/g
same,biodistribution blood,3 hours,0.03 ± 0.00 % ID/g
same,biodistribution bone,3 hours,0.17 ± 0.19 % ID/g
same,biodistribution brain,3 hours,0.00 ± 0.00 % ID/g
same,biodistribution heart,3 hours,0.04 ± 0.00 % ID/g
same,biodistribution kidney,3 hours,1.58 ± 0.14 % ID/g
same,biodistribution lg. intestine,3 hours,0.15 ± 0.04 % ID
same,biodistribution liver,3 hours,0.18 ± 0.02 % ID/g
same,biodistribution lung,3 hours,0.21 ± 0.03 % ID/g
same,biodistribution muscle,3 hours,0.05 ± 0.03 % ID/g
same,biodistribution ovaries,3 hours,0.21 ± 0.19 % ID/g
same,biodistribution sm. intestine,3 hours,0.22 ± 0.07 % ID
same,biodistribution spleen,3 hours,0.09 ± 0.01 % ID/g
same,biodistribution stomach,3 hours,0.02 ± 0.01 % ID
same,biodistribution tumor,3 hours,5.38 ± 0.48 % ID/g
same,biodistribution uterus,3 hours,0.35 ± 0.42 % ID/g
same,injected activity excreted in the urine,3 hours post injection,over 95%
same,tumor-to-blood ratio,3 hours post injection,~200
same,biodistribution bladder,6 hours,0.20 ± 0.08 % ID/g
same,biodistribution blood,6 hours,0.02 ± 0.00 % ID/g
same,biodistribution bone,6 hours,0.03 ± 0.00 % ID/g
same,biodistribution brain,6 hours,0.00 ± 0.00 % ID/g
same,biodistribution heart,6 hours,0.03 ± 0.01 % ID/g
same,biodistribution kidney,6 hours,1.09 ± 0.18 % ID/g
same,biodistribution lg. intestine,6 hours,0.05 ± 0.01 % ID
same,biodistribution liver,6 hours,0.15 ± 0.01 % ID/g
same,biodistribution lung,6 hours,0.11 ± 0.02 % ID/g
same,biodistribution muscle,6 hours,0.02 ± 0.00 % ID/g
same,biodistribution ovaries,6 hours,0.09 ± 0.02 % ID/g
same,biodistribution sm. intestine,6 hours,0.38 ± 0.26 % ID
same,biodistribution spleen,6 hours,0.07 ± 0.01 % ID/g
same,biodistribution stomach,6 hours,0.01 ± 0.01 % ID
same,biodistribution tumor,6 hours,4.53 ± 1.69 % ID/g
same,biodistribution uterus,6 hours,0.10 ± 0.04 % ID/g
same,biodistribution bladder,1 day,0.20 ± 0.06 % ID/g
same,biodistribution blood,1 day,0.01 ± 0.00 % ID/g
same,biodistribution bone,1 day,0.03 ± 0.01 % ID/g
same,biodistribution brain,1 day,0.00 ± 0.00 % ID/g
same,biodistribution heart,1 day,0.03 ± 0.00 % ID/g
same,biodistribution kidney,1 day,1.01 ± 0.13 % ID/g
same,biodistribution lg. intestine,1 day,0.06 ± 0.06 % ID
same,biodistribution liver,1 day,0.13 ± 0.02 % ID/g
same,biodistribution lung,1 day,0.10 ± 0.01 % ID/g
same,biodistribution muscle,1 day,0.02 ± 0.00 % ID/g
same,biodistribution ovaries,1 day,0.08 ± 0.03 % ID/g
same,biodistribution sm. intestine,1 day,0.09 ± 0.05 % ID
same,biodistribution spleen,1 day,0.07 ± 0.01 % ID/g
same,biodistribution stomach,1 day,0.04 ± 0.05 % ID
same,biodistribution tumor,1 day,3.83 ± 0.95 % ID/g
same,biodistribution uterus,1 day,0.09 ± 0.02 % ID/g
same,biodistribution bladder,2 days,0.12 ± 0.07 % ID/g
same,biodistribution blood,2 days,0.01 ± 0.00 % ID/g
same,biodistribution bone,2 days,0.02 ± 0.00 % ID/g
same,biodistribution brain,2 days,0.00 ± 0.00 % ID/g
same,biodistribution heart,2 days,0.03 ± 0.01 % ID/g
same,biodistribution kidney,2 days,0.49 ± 0.07 % ID/g
same,biodistribution lg. intestine,2 days,0.07 ± 0.08 % ID
same,biodistribution liver,2 days,0.11 ± 0.02 % ID/g
same,biodistribution lung,2 days,0.08 ± 0.03 % ID/g
same,biodistribution muscle,2 days,0.02 ± 0.01 % ID/g
same,biodistribution ovaries,2 days,0.10 ± 0.06 % ID/g
same,biodistribution sm. intestine,2 days,0.06 ± 0.06 % ID
same,biodistribution spleen,2 days,0.07 ± 0.01 % ID/g
same,biodistribution stomach,2 days,0.01 ± 0.01 % ID
same,biodistribution tumor,2 days,3.15 ± 1.32 % ID/g
same,biodistribution uterus,2 days,0.12 ± 0.09 % ID/g
same,biodistribution bladder,4 days,0.13 ± 0.04 % ID/g
same,biodistribution blood,4 days,0.00 ± 0.00 % ID/g
same,biodistribution bone,4 days,0.02 ± 0.01 % ID/g
same,biodistribution brain,4 days,0.00 ± 0.00 % ID/g
same,biodistribution heart,4 days,0.02 ± 0.00 % ID/g
same,biodistribution kidney,4 days,0.34 ± 0.02 % ID/g
same,biodistribution lg. intestine,4 days,0.03 ± 0.02 % ID
same,biodistribution liver,4 days,0.14 ± 0.02 % ID/g
same,biodistribution lung,4 days,0.06 ± 0.01 % ID/g
same,biodistribution muscle,4 days,0.01 ± 0.00 % ID/g
same,biodistribution ovaries,4 days,0.09 ± 0.02 % ID/g
same,biodistribution sm. intestine,4 days,0.04 ± 0.04 % ID
same,biodistribution spleen,4 days,0.07 ± 0.01 % ID/g
same,biodistribution stomach,4 days,0.01 ± 0.00 % ID
same,biodistribution tumor,4 days,2.06 ± 0.84 % ID/g
same,biodistribution uterus,4 days,0.10 ± 0.07 % ID/g
same,biodistribution bladder,7 days,0.15 ± 0.02 % ID/g
same,biodistribution blood,7 days,0.00 ± 0.00 % ID/g
same,biodistribution bone,7 days,0.01 ± 0.00 % ID/g
same,biodistribution brain,7 days,0.00 ± 0.00 % ID/g
same,biodistribution heart,7 days,0.01 ± 0.00 % ID/g
same,biodistribution kidney,7 days,0.19 ± 0.04 % ID/g
same,biodistribution lg. intestine,7 days,0.02 ± 0.01 % ID
same,biodistribution liver,7 days,0.13 ± 0.03 % ID/g
same,biodistribution lung,7 days,0.04 ± 0.01 % ID/g
same,biodistribution muscle,7 days,0.01 ± 0.00 % ID/g
same,biodistribution ovaries,7 days,0.08 ± 0.04 % ID/g
same,biodistribution sm. intestine,7 days,0.07 ± 0.04 % ID
same,biodistribution spleen,7 days,0.08 ± 0.01 % ID/g
same,biodistribution stomach,7 days,0.01 ± 0.00 % ID
same,biodistribution tumor,7 days,1.02 ± 0.36 % ID/g
same,biodistribution uterus,7 days,0.21 ± 0.16 % ID/g
same,"T1/2, elimination from blood",CC49-TCO pretargeted mice,11.2 min
same,tumor-to-blood ratio,by the end of the experiment (7 days),over 500
